Measured values: ChEMBL document CHEMBL1126490, “An unusual oxetane nucleoside as a potent antiviral agent” (1993)
Where “and” joins values, the source holds several entries; their conditions need not be identical. Identical values can stand only once.

Columns and labels:
Type in all cases: functional
Mus musculus [1] = assay: Percent survival of mice against Japanese encephalitis virus after 5 mg/Kg peroral administration of the compound.; conditions: po
Mus musculus [2] = assay: Percent survival of mice against Japanese encephalitis virus after 10 mg/Kg peroral administration of compound; conditions: po
Mus musculus [3] = assay: Percent survival of mice against forest virus after 10 mg/Kg peroral administration of compound; conditions: po
Mus musculus [4] = assay: Percent survival of mice against forest virus after 5 mg/Kg peroral administration of compound; conditions: po
Mus musculus [5] = organism: Mus musculus; assay: Mean survival time of mice against Japanese encephalitis virus was determined
Mus musculus [6] = organism: Mus musculus; assay: Mean survival time of mice against forest virus was determined

How did the survival at 5 mg/kg (Mus musculus [1]) turn out when Nc1ncnc2c1ncn2C1OC2COC2C1O (stereo unspecified) was run?
The survival at 5 mg/kg was 37%.

And the survival at 10 mg/kg (Mus musculus [2])?
Its survival at 10 mg/kg is 67%.

What about the survival at 10 mg/kg (Mus musculus [3]) of the same compound?
Its survival at 10 mg/kg is 50%.

What about the survival at 5 mg/kg (Mus musculus [4]) of the same compound?
The survival at 5 mg/kg was 37%.

And the MST (Mus musculus [5])?
Its MST is 10.7 days and 15.5 days.

And the MST (Mus musculus [6])?
Its MST is 11.6 days and 11.8 days.
